# Measured values reported in patent US20080020995A1, “Use of Cyclodextrin Complexes Containing Lipoic Acid” (priority 2004, published 2008).
# Assay: Storage stability test of blend formulation (α-lipoic acid content)
# Format: physicochemical
# Details: absence of air and light
# Experimental: First, a blend formulation of the following composition was produced: […]
# 50 g of creatine monohydrate; 20 g of citric acid; 5.0 g of sodium carbonate; 15 g of sodium bicarbonate; 5.0 g of lemon aroma; 0.5 g of aspartame; 0.5 g of acesulfame K; 4.0 g of magnesium hydroxide
# To this blend were added 0.2% by weight of α-lipoic acid and 1.67% by weight of a racemic α-lipoic acid/α-cyclodextrin complex, respectively. The preparations obtained in each case were packaged in the absence of air and light and stored at 20° C. and 40° C.
structure (smiles),measurement,setting,value
"O=C(O)CCCCC1CCSS1 (racemic) [ALA, 1,2-dithiacyclopentane-3-valeric acid]",α-Lipoic acid content of the blend,"20° C., 1 month",0.19 % by weight
same,α-Lipoic acid content of the blend,"20° C., 2 months",0.17 % by weight
same,α-Lipoic acid content of the blend,"20° C., 3 months",0.16 % by weight
same,α-Lipoic acid content of the blend,"20° C., 6 months",0.14 % by weight
same,α-Lipoic acid content of the blend,"20° C., 9 months",0.12 % by weight
same,α-Lipoic acid content of the blend,"20° C., 12 months",0.1 % by weight
same,α-Lipoic acid content of the blend,"40° C., 1 month",0.16 % by weight
same,α-Lipoic acid content of the blend,"40° C., 2 months",0.11 % by weight
same,α-Lipoic acid content of the blend,"40° C., 3 months",0.09 % by weight
same,α-Lipoic acid content of the blend,"40° C., 6 months",0.06 % by weight
same,α-Lipoic acid content of the blend,"40° C., 9 months",0.03 % by weight
same,α-Lipoic acid content of the blend,"40° C., 12 months",0 % by weight
